Test results as given in ChEMBL document CHEMBL1177792, “Pre-clinical characterization of aryloxypyridine amides as histamine H3 receptor antagonists: identification of candidates for clinical development” (Bioorg Med Chem Lett, 2010).

How the values were obtained:
Histamine H3 receptor [1] = target: T1, Histamine H3 receptor (Homo sapiens, UniProt Q9Y5N1); test: Displacement of [125I]-iodoproxyfan from human recombinant histamine H3 receptor expressed in human SK-N-MC cells after 1 hr by scintillation counting; type: cell-based
Histamine H3 receptor [2] = target: T1, Histamine H3 receptor; test: Antagonist activity at human histamine H3 receptor expressed in human SK-N-MC cells assessed as inhibition of forskolin-induced cAMP accumulation after 6 hrs; type: functional, cell-based; conditions: read-out: pA2 (converted)
Histamine H3 receptor [3] = target: T2, Histamine H3 receptor (Rattus norvegicus, UniProt Q9QYN8); test: Antagonist activity at rat histamine H3 receptor expressed in human SK-N-MC cells assessed as inhibition of forskolin-induced cAMP accumulation after 6 hrs; type: functional, cell-based; conditions: read-out: pA2 (converted)
[4] = Metabolic stability in rat liver microsomes assessed as compound remaining after 30 mins; type: ADME, Microsome; conditions: read-out: Stability
[5] = Metabolic stability in human liver microsomes assessed as compound remaining after 30 mins; type: ADME, Microsome; conditions: read-out: Stability
Rattus norvegicus = test: Ex vivo receptor occupancy of histamine H3 receptor in Wistar rat brain at 10 mg/kg, po after 1 hr by autoradiography; type: functional
[6] = Drug level in Wistar rat brain at 10 mg/kg, po after 1 hr; type: ADME, organism-based; set-up: dose 10 mg/kg, route oral; conditions: read-out: Drug uptake
[7] = Plasma concentration in Wistar rat at 10 mg/kg, po after 1 hr; type: ADME, organism-based; set-up: dose 10 mg/kg, route oral; conditions: read-out: Drug uptake
Histamine H3 receptor [8] = target: T2, Histamine H3 receptor; test: Binding affinity to histamine H3 receptor in rat brain; type: tissue-based
[9] = Clearance in Sprague-Dawley rat at 1 mg/kg, iv and 10 mg/kg, po; type: ADME, organism-based; conditions: in vivo
[10] = Volume of distribution at steady state in Sprague-Dawley rat at 1 mg/kg, iv and 10 mg/kg, po; type: ADME, organism-based; conditions: in vivo, read-out: Vdss
[11] = Half life in Sprague-Dawley rat at 1 mg/kg, iv and 10 mg/kg, po; type: ADME, organism-based; conditions: in vivo
[12] = Bioavailability in Sprague-Dawley rat at 1 mg/kg, iv and 10 mg/kg, po; type: ADME, organism-based; conditions: in vivo
[13] = target: T3, Voltage-gated inwardly rectifying potassium channel KCNH2 (Homo sapiens, UniProt Q12809); test: Displacement of radiolabeled astemizole from human ERG
hERG (KCNH2) = hERG (KCNH2) (Homo sapiens, UniProt Q12809); test: Displacement of radiolabeled astemizole from human ERG at 10 uM; conditions: probe radiolabeled astemizole
[14] = target: T3, Voltage-gated inwardly rectifying potassium channel KCNH2; test: Inhibition of human ERG by patch clamp technique
[15] = Clearance in Beagle dog at 1 mg/kg, iv and 5 mg/kg, po; type: ADME, organism-based, Canis lupus familiaris; conditions: in vivo
[16] = Volume of distribution at steady state in Beagle dog at 1 mg/kg, iv and 5 mg/kg, po; type: ADME, organism-based, Canis lupus familiaris; conditions: in vivo, read-out: Vdss
[17] = Half life in Beagle dog at 1 mg/kg, iv and 5 mg/kg, po; type: ADME, organism-based, Canis lupus familiaris; conditions: in vivo
[18] = Bioavailability in Beagle dog at 1 mg/kg, iv and 5 mg/kg, po; type: ADME, organism-based, Canis lupus familiaris; conditions: in vivo

T3 sequence (Q12809 whole entry): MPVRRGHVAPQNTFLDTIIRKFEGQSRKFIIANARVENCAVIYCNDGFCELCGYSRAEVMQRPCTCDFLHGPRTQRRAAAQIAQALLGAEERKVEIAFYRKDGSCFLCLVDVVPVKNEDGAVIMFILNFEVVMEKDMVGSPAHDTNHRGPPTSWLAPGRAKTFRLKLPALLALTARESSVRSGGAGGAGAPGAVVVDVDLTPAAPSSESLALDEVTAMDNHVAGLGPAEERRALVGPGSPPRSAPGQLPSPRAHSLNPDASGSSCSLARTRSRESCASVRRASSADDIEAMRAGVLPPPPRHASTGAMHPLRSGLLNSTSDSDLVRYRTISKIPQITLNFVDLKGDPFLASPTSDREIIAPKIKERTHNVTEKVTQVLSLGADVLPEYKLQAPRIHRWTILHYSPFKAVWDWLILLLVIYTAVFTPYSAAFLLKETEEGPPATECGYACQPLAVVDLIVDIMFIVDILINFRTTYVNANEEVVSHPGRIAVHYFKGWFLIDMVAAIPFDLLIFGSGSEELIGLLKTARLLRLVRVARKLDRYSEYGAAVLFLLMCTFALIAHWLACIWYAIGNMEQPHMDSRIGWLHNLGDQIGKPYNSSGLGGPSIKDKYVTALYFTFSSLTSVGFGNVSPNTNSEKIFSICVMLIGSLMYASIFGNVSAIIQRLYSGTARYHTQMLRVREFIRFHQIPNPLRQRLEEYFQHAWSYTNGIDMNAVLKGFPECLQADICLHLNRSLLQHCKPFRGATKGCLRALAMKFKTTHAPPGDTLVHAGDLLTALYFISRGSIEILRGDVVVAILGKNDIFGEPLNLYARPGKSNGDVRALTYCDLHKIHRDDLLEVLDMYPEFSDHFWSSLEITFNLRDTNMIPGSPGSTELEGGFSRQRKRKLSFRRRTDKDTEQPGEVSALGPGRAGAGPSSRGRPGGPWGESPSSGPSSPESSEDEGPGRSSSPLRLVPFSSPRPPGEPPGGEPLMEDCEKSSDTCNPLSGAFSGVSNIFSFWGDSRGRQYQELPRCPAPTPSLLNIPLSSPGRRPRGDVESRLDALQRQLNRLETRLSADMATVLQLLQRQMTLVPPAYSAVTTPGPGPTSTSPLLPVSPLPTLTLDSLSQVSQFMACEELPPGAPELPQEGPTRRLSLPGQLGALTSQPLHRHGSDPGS
T2 sequence (Q9QYN8 whole entry): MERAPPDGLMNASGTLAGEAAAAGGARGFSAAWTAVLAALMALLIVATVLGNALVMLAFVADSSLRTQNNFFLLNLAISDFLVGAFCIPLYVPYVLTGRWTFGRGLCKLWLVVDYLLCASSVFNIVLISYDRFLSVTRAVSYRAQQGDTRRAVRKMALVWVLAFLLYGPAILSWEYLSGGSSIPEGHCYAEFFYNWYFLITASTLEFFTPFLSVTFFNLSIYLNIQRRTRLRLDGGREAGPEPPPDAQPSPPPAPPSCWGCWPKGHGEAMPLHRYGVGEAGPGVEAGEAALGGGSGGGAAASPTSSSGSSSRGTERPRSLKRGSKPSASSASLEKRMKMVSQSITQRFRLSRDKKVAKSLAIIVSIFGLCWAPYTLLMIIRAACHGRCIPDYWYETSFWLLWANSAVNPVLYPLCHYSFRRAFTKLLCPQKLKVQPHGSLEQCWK
T1 sequence (Q9Y5N1 whole entry): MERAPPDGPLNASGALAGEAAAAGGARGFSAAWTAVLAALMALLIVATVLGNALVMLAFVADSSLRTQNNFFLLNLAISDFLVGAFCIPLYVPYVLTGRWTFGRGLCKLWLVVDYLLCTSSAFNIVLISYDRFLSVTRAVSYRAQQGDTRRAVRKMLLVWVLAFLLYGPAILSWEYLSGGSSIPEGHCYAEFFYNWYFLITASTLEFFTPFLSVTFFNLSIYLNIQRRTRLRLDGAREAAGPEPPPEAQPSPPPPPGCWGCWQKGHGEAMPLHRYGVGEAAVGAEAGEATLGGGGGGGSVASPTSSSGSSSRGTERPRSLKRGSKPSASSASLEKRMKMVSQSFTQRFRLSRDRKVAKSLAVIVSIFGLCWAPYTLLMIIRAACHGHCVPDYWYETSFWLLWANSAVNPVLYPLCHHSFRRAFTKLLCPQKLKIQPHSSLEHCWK
Sequence of hERG (KCNH2) (Q12809 whole entry): as the sequence (Q12809 whole entry) above

CC(C)N1CCCN(C(=O)c2ccc(Oc3ccc(Cl)c(Cl)c3)cn2)CC1 showed a Ki (Histamine H3 receptor [1]) of 1.5 nM and a Kb (Histamine H3 receptor [2]) of 0.309 nM.

Work on O=C(c1ccc(Oc2ccc(Cl)cc2)nc1)N1CCCN(C2CCC2)CC1 yielded a Ki (Histamine H3 receptor [1]) of 59 nM, a Kb (Histamine H3 receptor [3]) of 3.98 nM and a remaining at 0.5 h [4] of 63%. For the same compound, the remaining at 0.5 h [5] was 95%, the Activity (Rattus norvegicus) was 95% and the concentration at 1 h [6] was 2620 nM. It also gave a concentration at 1 h [7] of 4470 nM, a Ki (Histamine H3 receptor [8]) of 23 nM and a clearance [9] of 36 mL/min/kg. For the same compound, the Vd [10] was 3 L/kg, the half-life [11] was 1.3 h and the bioavailability [12] was 62%. For the same compound, the IC50 [13] was over 10000 nM, the inhibition at 10 µM (hERG (KCNH2)) was 23% and the IC50 [14] was 1400 nM.

With O=C(c1ccc(Oc2ccc(Cl)c(Cl)c2)cn1)N1CCCN(C2CC2)CC1 the Ki (Histamine H3 receptor [1]) was 10 nM.

Compound CCN1CCCN(C(=O)c2ccc(Oc3ccc(F)cc3)nc2)CC1 has a Ki (Histamine H3 receptor [1]) of 34 nM.

O=C(c1ccc(Oc2ccccc2Cl)nc1)N1CCN(C2CCCC2)CC1 gave a Ki (Histamine H3 receptor [1]) of 40 nM.

O=C(c1cc(Oc2ccc(F)cc2)ccn1)N1CCCN(C2CCC2)CC1 gave a Ki (Histamine H3 receptor [1]) of 5.7 nM.

For O=C(c1ccc(Oc2ccc(Cl)cc2)cn1)N1CCCN(C2CCC2)CC1, the Ki (Histamine H3 receptor [1]) was 5.5 nM.

With O=C(c1ccc(Oc2ccccc2F)cn1)N1CCCN(C2CCC2)CC1 the Ki (Histamine H3 receptor [1]) was 4.3 nM and the Kb (Histamine H3 receptor [2]) was 0.537 nM.

In the case of O=C(c1ccc(Oc2ccc(F)cc2)nc1)N1CCN(C2CC2)CC1, the Ki (Histamine H3 receptor [1]) is reported as 430 nM.

O=C(c1ccc(Oc2ccc(F)cc2)cn1)N1CCCN(C2CCC2)CC1 showed a Ki (Histamine H3 receptor [1]) of 2.9 nM, a Kb (Histamine H3 receptor [2]) of 1.41 nM and a Kb (Histamine H3 receptor [3]) of 26.3 nM. For the same compound, the remaining at 0.5 h [4] was 56%, the remaining at 0.5 h [5] was 95% and the Activity (Rattus norvegicus) was 87%. It also gave a concentration at 1 h [6] of 2370 nM, a concentration at 1 h [7] of 1020 nM and a Ki (Histamine H3 receptor [8]) of 24 nM. The clearance [9] was 80 mL/min/kg, the Vd [10] was 4.5 L/kg and the half-life [11] was 1 h. For the same compound, the bioavailability [12] was 23%, the clearance [15] was 35 mL/min/kg and the Vd [16] was 3.6 L/kg. It also gave a half-life [17] of 1.9 h and a bioavailability [18] of 14%.

O=C(c1cccc(Oc2ccc(Cl)c(Cl)c2)n1)N1CCCN(C2CCC2)CC1 gave a Ki (Histamine H3 receptor [1]) of 160 nM.

With O=C(c1ccc(Oc2cccc(Cl)c2)nc1)N1CCCN(C2CCC2)CC1 the Kb (Histamine H3 receptor [2]) was 0.871 nM, the Kb (Histamine H3 receptor [3]) was 5.01 nM and the remaining at 0.5 h [4] was 58%. For the same compound, the remaining at 0.5 h [5] was 98%, the Activity (Rattus norvegicus) was 96% and the concentration at 1 h [6] was 1720 nM. For the same compound, the concentration at 1 h [7] was 630 nM, the clearance [9] was 104 mL/min/kg and the Vd [10] was 5 L/kg. The half-life [11] was 1 h, the bioavailability [12] was 19% and the IC50 [13] was over 10000 nM. It also gave an inhibition at 10 µM (hERG (KCNH2)) of 28% and an IC50 [14] of 1600 nM.

For CN1CCCN(C(=O)c2ccc(Oc3ccc(F)cc3)nc2)CC1, the Ki (Histamine H3 receptor [1]) was 860 nM.

With O=C(c1ccc(Oc2cccc(Cl)c2)cn1)N1CCCN(C2CCC2)CC1 the Ki (Histamine H3 receptor [1]) was 4.7 nM.

CC(C)N1CCN(C(=O)c2ccc(Oc3ccc(Cl)cc3)nc2)CC1 gave a Ki (Histamine H3 receptor [1]) of 73 nM.

For CC(C)N1CCCN(C(=O)c2ccc(Oc3ccc(Cl)c(Cl)c3)nc2)CC1, the Ki (Histamine H3 receptor [1]) was 18 nM.

O=C(c1ccc(Oc2cccc(F)c2)nc1)N1CCCN(C2CC2)CC1 showed a Ki (Histamine H3 receptor [1]) of 16 nM.

Work on O=C(c1ccc(Sc2ccc(F)cc2)nc1)N1CCCN(C2CCC2)CC1 yielded a Ki (Histamine H3 receptor [1]) of 29 nM.

CC(C)N1CCN(C(=O)c2ccc(Oc3ccccc3)nc2)CC1 showed a Ki (Histamine H3 receptor [1]) of 260 nM.

O=C(c1cncc(Oc2ccccc2)c1)N1CCCN(C2CCC2)CC1 gave a Ki (Histamine H3 receptor [1]) of 11 nM.

CC(C)N1CCN(C(=O)c2ccc(Oc3ccccc3Cl)nc2)CC1 showed a Ki (Histamine H3 receptor [1]) of 31 nM.

For O=C(c1ccc(Oc2cccc(F)c2)cn1)N1CCCN(C2CCC2)CC1, the Ki (Histamine H3 receptor [1]) was 5.5 nM.
